Measurements from article PMC1890308, “Anti-calmodulins and Tricyclic Adjuvants in Pain Therapy Block the TRPV1 Channel” (PLoS ONE, 2007).
Values joined by “and” are separate entries in the source; they are usually repeats but may differ in a detail not shown here. Identical values can stand only once.

What was measured:
[1] = target: T1, rat TRPV1 (Rattus norvegicus, UniProt O35433); experiment: capsaicin-induced 45Ca2+-uptake in TRPV1-NIH3T3 cells; assay type: cell-based
T1 construct: expressed in transfected cells
Experimental: (§1) Assays were carried out in 2×10^−5 M extracellular Ca^2+ in 96 well plate formats at room temperature (22°C) for 10 min with robotic liquid handling. […] We hypothesized that calmodulin antagonists and some registered drugs may exert their blocking effect with another mechanisms on TRPV1 and not necessarily on their conventional target.
(§2) TRPV1-NIH3T3 mouse fibroblast line, ectopically expressing the rat TRPV1 was established previously.
(§3) Vanilloid agonist inducible calcium transport was assayed in adherent cell lines ectopically expressing the C-terminally ε-tagged rat TRPV1 (3×10^4 cells/well) and primary cultures prepared from embryonic DRG, seeded in poly-D lysine/collagen coated 96 well plates. […] The previously established cell lines and standardized DRG cultures were extensively characterized for functional cell-based TRPV1 studies [1]–[4]. Immediately before the transport assay, cells were adapted to room temperature (20°C) for 5 min in HCM. ^45Ca^2+-uptake was performed for 10 min at 20°C in HCM using 0.1 µCi ^45Ca^2+ as radioactive tracer in a 100 µl final volume. To stop ^45Ca^2+-uptake, cells were rapidly changed back into 0.2 ml HCM, washed 4 additional times with 0.2 ml HCM, and then lysed in 80 µl/well RIPA buffer (50 mM Tris-HCl, pH 7.5, 150 mM NaCl, 1% Triton X-100, 0.5% deoxycholate, 0.1% SDS, 5 mM EDTA) for 30 min [1]–[4]. Aliquots of the solubilized cell extracts were mixed with 120 µl Microscint-40 and counted in a 96 well plate liquid scintillation counter (TopCount-NXT, Packard).

[2] = tested on: kainic acid receptors; experiment: kainic acid-evoked responses of spinal dorsal horn neurons, microiontophoresis; assay type: in vivo; settings: anesthetized rat, iontophoresis, mean±SD, n = 16
Experimental: In another set of experiments, effects of calmidazolium were investigated on the responses of dorsal horn neurons evoked by NMDA and kainic acid agonists of different glutamate receptors, well characterized transducers of pain signals, more centrally. Neuronal firing responses to iontophoresed NMDA or kainic acid were typically fast in onset and short in duration (Fig. 8). Ejection currents for these excitatory agents were delivered alternately in every 2 min and were selected to produce a maximal peak height of 50–70 spikes/s which corresponded to 300–400 action potentials per stimulation epoch. Iontophoretic application of calmidazolium produced significant reduction in responses to both NMDA and kainic acid. Maximal inhibition of NMDA- or kainic acid -evoked responses were reached 15–20 min after calmidazolium application and remained so during the rest of the 2 hour long experiment. […]
Extracellular single-neuron recordings were made in chloral hydrate-anesthetized ([…] initial dose, i.p., with supplemental doses as required) male Wistar rats weighing between 350–450 g. […] Rectal temperature as well as the temperature of the mineral oil were monitored with temperature probes and kept at 37°C by a warm water-heated blanket beneath the rat and an infrared heat lamp from above. […]

[3] = tested on: intermediate Ca2+-activated K+ channels (IKCa); settings: human erythrocytes; cited from earlier work
[4] = target: T2, TRPV1 (Rattus norvegicus, UniProt O35433); experiment: capsaicin-induced Ca2+-uptake in human TRPV1-HaCaT keratinocyte line; assay type: cell-based; design: expressed in transfected cells; settings: data not shown
Experimental: as §1, §2
as §3, with “To stop ^45Ca^2+-uptake, cells were rapidly changed back into 0.2 ml HCM, washed 4 additional times with 0.2 ml HCM, and then lysed in 80 µl/well RIPA buffer (50 mM Tris-HCl, pH 7.5, 150 mM NaCl, 1% Triton X-100, 0.5% deoxycholate, 0.1% SDS, 5 mM EDTA) for 30 min [1]–[4].” left out

[5] = target: T2, TRPV1; experiment: capsaicin-induced 45Ca2+-uptake in primary rat embryonic DRG cultures; assay type: cell-based; design: sensory neurons, expressing TRPV1 endogenously; endogenous in cells; host or cells: primary cultures of embryonic rat dorsal root ganglia (E14, E16)
Experimental: Primary cultures were prepared from embryonic (E14) rat DRGs. Along with calmidazolium other polycyclic compounds were included in the vanilloid-induced ^45Ca^2+-transport assays.
Primary DRG cultures were prepared from E16 embryonic rats as described previously then plated in 15 cm Petri dishes for 4 h to remove the most adherent fibroblasts. For Ca^2+-uptake studies primary afferents neurons cultured in 96 well plates (3×10^3 cells/well), coated with poly-D lysine/collagen, which yielded both axons and dendrites bearing neurons due to neuronal growth factor supplementation in the culture medium [1]–[4]. The dendrites are large processes branching from the cell body that taper in diameter further from the cell body. The axons are a constant diameter and project over long distances from the cell body. Before the ion transport experiment, culture medium was removed and cells were washed three times. ^45Ca-uptake assays were carried out in “nominally zero Ca^2+” (i.e. 2×10^−5 M extracellular Ca^2+ ([Ca^2+]o) in 25 mM Tris-HCl buffered Hanks' balanced salt solution (pH 7.5), supplemented with 10 µM CaCl2 and 0.8 mM MgCl2medium (HCM) [1]–[4].
as §3

[6] = increasing concentrations of capsaicin

T1 sequence (O35433 whole entry): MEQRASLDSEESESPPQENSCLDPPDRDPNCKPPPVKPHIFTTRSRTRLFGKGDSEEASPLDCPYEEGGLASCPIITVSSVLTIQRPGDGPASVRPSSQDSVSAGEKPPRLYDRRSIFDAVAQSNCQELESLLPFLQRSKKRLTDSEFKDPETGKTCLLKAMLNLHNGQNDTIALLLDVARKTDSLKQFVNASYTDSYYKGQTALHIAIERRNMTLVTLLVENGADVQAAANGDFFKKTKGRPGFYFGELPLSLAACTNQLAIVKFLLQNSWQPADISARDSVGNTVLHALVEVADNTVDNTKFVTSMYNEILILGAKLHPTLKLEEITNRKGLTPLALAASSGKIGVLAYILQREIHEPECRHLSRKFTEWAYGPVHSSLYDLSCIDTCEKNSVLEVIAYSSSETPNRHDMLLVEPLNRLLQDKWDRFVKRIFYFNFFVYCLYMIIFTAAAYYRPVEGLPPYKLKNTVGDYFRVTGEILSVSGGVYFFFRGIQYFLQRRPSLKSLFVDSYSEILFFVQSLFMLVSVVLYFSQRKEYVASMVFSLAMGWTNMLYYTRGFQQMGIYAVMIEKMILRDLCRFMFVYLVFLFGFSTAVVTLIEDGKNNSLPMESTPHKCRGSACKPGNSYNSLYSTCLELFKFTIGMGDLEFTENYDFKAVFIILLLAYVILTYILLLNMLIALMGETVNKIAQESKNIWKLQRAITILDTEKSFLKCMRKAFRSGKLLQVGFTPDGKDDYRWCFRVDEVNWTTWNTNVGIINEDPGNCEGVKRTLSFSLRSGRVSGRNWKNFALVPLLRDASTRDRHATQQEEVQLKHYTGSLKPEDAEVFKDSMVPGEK
T2 sequence (O35433 whole entry): as above

Clc1ccc(C(c2ccc(Cl)cc2)n2cc[n+](CC(OCc3ccc(Cl)cc3Cl)c3ccc(Cl)cc3Cl)c2)cc1 (stereo not drawn) [calmidazolium]
antagonist activity on capsaicin-induced Ca2+-uptake (in words) ([1]; 2 µM capsaicin): full antagonists | IC50 ([1]; 2 µM capsaicin, 10 min, 2×10^−5 M extracellular Ca2+, room temperature, read-out: IC50, inhibition of capsaicin-induced 45Ca2+-uptake): 7000 nM and ~2000 nM | concentration above which Ca2+-transport was almost completely abolished [1, 6]: > 2.5 µM | kinetics of Ca2+-transport inhibition [1, 6]: decreased Vmax | responses to kainic acid, % of pre-calmidazolium baseline control [2]: 47±20% | activity on IKCa channels (in words) [3]: inactive | efficacy on TRPV1 (in words) [4]: µM scale | fold higher potency in DRG cultures ([5]; DRG cultures vs TRPV1-NIH3T3 cells / other compounds (comparator unclear)): ~3 fold | IC50 ([5]; rat embryonic DRG sensory neuron cultures, 2 µM capsaicin, read-out: IC50, inhibition of capsaicin-induced Ca2+-uptake): 600 nM and ~600 nM
